Assay results reported in US11833185B2, “Anti-neurodegenerative therapeutic, method of manufacture, and use” (UNIVERSITY OF KENTUCKY RESEARCH FOUNDATION, priority 2017, dated 2023).
Where a SMILES comes first, the peptide text is derived from it.

Columns and labels:
[1] = Plasma levels by LC-MS/MS after subcutaneous administration; assay type: in vivo, rat; conditions: 100 mg/kg s.c. in saline
[2] = test system: MN9D neuronal cells; assay: LIVE/DEAD and JC-1 assays for toxicity and loss of mitochondrial potentials; conditions: 100 nM, 1 and 3 hours post treatment
Method: (§1) Testing involved permutations of size and diversifying amino acid sequence at each residue position. Sequence design began with Proline-Proline-Glutamate-Alanine-Proline-Alanine-Glutamate-Aspartate-Arginine-Serine-Leucine-NH2. […] These properties were tested using the dopaminergic MN9D neuronal cell line. Each candidate peptide sequence was dissolved in citrate buffer and added to MN9D cells (Choi et al., 1992) that were cultured in Dulbecco's Modified Eagle's Medium [DMEM (containing pyridoxol HCl); Sigma, St. Louis, MO] supplemented with 10% Fetal Bovine serum (HyClone, Logan, UT), 50 U/ml penicillin and streptomycin to a final 100 nM concentration. Using LIVE/DEAD and JC-1 assays in MN9D neuronal cells, individual library sequences were measured for toxicity and loss of mitochondrial potentials at 1 and 3 hours post treatment. […] The remaining sequences were then tested for their ability to provide protection against neurotoxins rotenone, 1-methyl-4-phenylpyridinium (MPP+), and trichloromethyl-1,2,3,4-tetrahydro-β-carboline (TaClo).

[3] = test system: MN9D neuronal cells; assay: Protection of mitochondrial potentials against rotenone, MPP+ and TaClo-induced cytotoxicity; assay type: cell-based; conditions: 100 nM pretreatment, 1, 3, 12, 24 hours
Method: as §1

[4] = rat, in vivo, sc, 100 mg/kg
[5] = rat, in vivo, sc
[6] = test system: depression; conditions: person, intranasal spray 50 mg daily for 270 days
Method: A person presents with the diagnosis of depression. They are administered peptide by intranasal spray at a dosage of 50 mg daily for 270 days. At 1, 90, 180, 270 and 360 days they are tested/retested with a battery of mental status tests including Hamilton Depression Scale (HAMD), Mini Mental Status Exam (MMSE), Beck Depression Index (BDI), Montgomery-Asberg Depression Rating Scale (MADRS), Clinical Global Impression Scale (CGI), Patient Global Impression Scale (PGI), Structural Clinical Interview for Diagnostic and Statistic Manual of Mental Disorders IV (SCID).

With `C[C@H](NC(=O)[C@@H]1CCCN1C(=O)[C@H](C)NC(=O)[C@@H](N)CCC(=O)O)C(=O)N[C@@H](CCC(=O)O)C(N)=O` [AV2157, Glutamate-Alanine-Proline-Alanine-Glutamate-NH2] (H-EAPAE-NH2; N-terminus assumed) the “total lifetime in plasma” value [1] was ~120 min, the Cmax ([1]; rat, plasma, sc, read-out: maximum plasma level) was 1250 ng/mL and the Tmax ([1]; rat, plasma, sc, read-out: time of maximum plasma level post administration (converted)) was 20 min. The toxicity [2] was “low toxicity”, the “protection against neurotoxins (rotenone, MPP+, TaClo)” value [3] was “protection against neurotoxin exposure at all time points measured” and the half-life [4] was 50 to 60 min. For the same compound, the “improved CNS bioavailability compared to AV6403” value [5] was “over 10 times”.

In the case of “Ac-Leucine-D-Methionine-Proline-Alanine-deuterated Serine-Phenylalanine [SEQ ID NO: 9]”, the “HAMD from day 1 over 360 days” value [6] is reported as “improvement in HAMD”.
